Target: T1, human IKK-2 (rhIKK-2 homodimer) (Homo sapiens, UniProt O14920)
T1 construct: FLAG (DYKDDDDKD) (C); made in house; host or cells: insect cells (baculovirus, pFastBac)
T1 sequence (O14920 1-756): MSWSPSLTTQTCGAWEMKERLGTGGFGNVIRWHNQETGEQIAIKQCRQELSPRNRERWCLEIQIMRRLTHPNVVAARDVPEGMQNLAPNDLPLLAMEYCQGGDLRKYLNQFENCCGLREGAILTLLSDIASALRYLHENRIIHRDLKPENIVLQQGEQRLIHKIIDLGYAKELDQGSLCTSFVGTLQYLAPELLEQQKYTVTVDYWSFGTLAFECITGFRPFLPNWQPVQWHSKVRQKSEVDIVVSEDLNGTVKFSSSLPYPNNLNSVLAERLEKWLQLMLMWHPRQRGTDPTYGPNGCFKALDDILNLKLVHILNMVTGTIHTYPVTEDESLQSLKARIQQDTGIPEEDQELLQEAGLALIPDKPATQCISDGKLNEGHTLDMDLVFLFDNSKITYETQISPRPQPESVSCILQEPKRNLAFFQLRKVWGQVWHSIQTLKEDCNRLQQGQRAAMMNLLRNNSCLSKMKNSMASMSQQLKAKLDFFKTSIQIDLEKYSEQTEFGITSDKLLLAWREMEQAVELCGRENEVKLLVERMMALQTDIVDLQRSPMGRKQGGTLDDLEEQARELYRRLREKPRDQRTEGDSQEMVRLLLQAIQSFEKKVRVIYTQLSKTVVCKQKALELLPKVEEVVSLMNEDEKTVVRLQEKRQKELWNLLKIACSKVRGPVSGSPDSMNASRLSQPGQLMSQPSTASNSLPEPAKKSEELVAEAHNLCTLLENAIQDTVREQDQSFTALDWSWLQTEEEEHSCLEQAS
Experiment: IKK-2 Resin Enzyme Assay (Human IKK-2 Enzyme Assay)
Assay type: biochemical
Settings: human IKK-2, resin enzyme assay; read-out: IC50 (μM) hIKK-2
Procedure, shortened: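 C-terminally FLAG-tagged human IKK-2 homodimer, baculovirus-expressed in insect cells and anti-FLAG purified. Reaction mix: 5 μM biotinylated IκBα peptide (Ser32/Ser36 region), 1 μM ATP with [γ-33P]ATP, 2 mM MgCl2, 2 mM MnCl2, 10 mM NaF, 1 mM DTT, 25 mM HEPES pH 7.6. Incubated 30 min at 25 °C; IC50 derived.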

IC50 [µM] | SMILES
0.9 | CC(=O)Nc1cccc(-c2cccc(-n3cc(NC(N)=O)c(C(N)=O)n3)c2)c1 [Example 76, 1-[3′-(acetylamino)-1,1′-biphenyl-3-yl]-4-[(aminocarbonyl)amino]-1H-pyrazole-3-carboxamide]
> 20 | CC(C)Cc1ccc(-c2cccc(-n3cc(NC(N)=O)c(C(N)=O)n3)c2)cc1 [Example 363, 4-[(aminocarbonyl)amino]-1-(4′-isobutyl-1,1′-biphenyl-3-yl)-1H-pyrazole-3-carboxamide]
> 20 | NC(=O)Nc1cn(-c2cccc(-c3ccccc3C(F)(F)F)c2)nc1C(N)=O [Example 366, 4-[(aminocarbonyl)amino]-1-[2′-(trifluoromeethyl)-1,1′-biphenyl-3-yl]-1H-pyrazole-3-carboxamide]
5.97 | NC(=O)Nc1cn(-c2ccc(-c3ccc(C(=O)NC4CCCc5ccccc54)c(F)c3)cc2)nc1C(N)=O (stereo not drawn) [Example 159, 4-[(aminocarbonyl)amino]-1-{3′-fluoro-4′-[(1,2,3,4-tetrahydronaphthalen-1-ylamino)carbonyl]-1,1′-biphenyl-4-yl}-1H-pyrazole-3-carboxamide]
0.844 | NC(=O)Nc1cn(-c2ccc(F)cc2)nc1C(N)=O [Example 212, 4-[(aminocarbonyl)amino]-1-(4-fluorophenyl)-1H-pyrazole-3-carboxamide]
> 20 | Cc1ccc(-c2ccc(-n3cc(NC(N)=O)c(C(N)=O)n3)cc2)cc1 [Example 103]
> 20 | NC(=O)Nc1cn(-c2cccc(-c3ccc(F)c(Cl)c3)c2)nc1C(N)=O [Example 361, 4-[(aminocarbonyl)amino]-1-(3′-chloro-4′-fluoro-1,1′-biphenyl-3-yl)-1H-pyrazole-3-carboxamide]
0.46 | NC(=O)Nc1cn(-c2ccc(Cl)c(Cl)c2)nc1C(N)=O [Example 188, 4-[(aminocarbonyl)amino]-1-(3,4-dichlorophenyl)-1H-pyrazole-3-carboxamide]
10.6 | NC(=O)Nc1cn(-c2ccc(Sc3cccc(Cl)c3)cc2)nc1C(N)=O [Example 289, 1-(1-(4-(3-chlorophenylthio)phenyl)-3-carbamoyl-1H-pyrazol-4-yl)urea]
1.19 | N#CCCNC(=O)c1cccc(-c2cccc(-n3cc(NC(N)=O)c(C(N)=O)n3)c2)c1 [Example 82, 4-[(aminocarbonyl)amino]-1-(3′-{[(2-cyanoethyl)amino]carbonyl}-1,1′-biphenyl-3-yl)-1H-pyrazole-3-carboxamide]
5.18 | COc1cccc(-c2cccc(-n3cc(NC(N)=O)c(C(N)=O)n3)c2)c1 [Example 343, 4-[(aminocarbonyl)amino]-1-(3′-methoxy-1,1′-biphenyl-3-yl)-1H-pyrazole-3-carboxamide]
0.279 | N#CCOc1ccccc1-c1ccc(-n2cc(NC(N)=O)c(C(N)=O)n2)c(F)c1 [Example 250, 4-[(aminocarbonyl)amino]-1-[2′-(cyanomethoxy)-3-fluoro-1,1′-biphenyl-4-yl]-1H-pyrazole-3-carboxamide]
0.11 | CNC(=O)c1ccc(-c2ccc(-n3cc(NC(N)=O)c(C(N)=O)n3)cc2)cc1F [Example 152, 4-[(aminocarbonyl)amino]-1-{3′-fluoro-4′-[(methylamino)carbonyl]-1,1′-biphenyl-4-yl}-1H-pyrazole-3-carboxamide]
> 20 | NC(=O)Nc1cn(-c2cccc(-c3cccc(C(F)(F)F)c3)c2)nc1C(N)=O [Example 367, 4-[(aminocarbonyl)amino]-1-[3′-(trifluoromethyl)-1,1′-biphenyl-3-yl]-1H-pyrazole-3-carboxamide]
7.73 | NC(=O)Nc1cn(-c2ccc(-c3cccc(OC(F)(F)F)c3)cc2)nc1C(N)=O [Example 24, 4-[(aminocarbonyl)amino]-1-[3′-(trifluoromethoxy)-1,1′-biphenyl-4-yl]-1H-pyrazole-3-carboxamide]
8.03 | NC(=O)Nc1cn(-c2cccc(-c3cccc(C(=O)O)c3)c2)nc1C(N)=O [Example 73, 3′-{3-(aminocarbonyl)-4-[(aminocarbonyl)amino]-1H-pyrazol-1-yl}-1,1′-biphenyl-3-carboxylic acid]
0.842 | NC(=O)Nc1cn(-c2ccc(-c3ccc(F)cc3O)c(F)c2)nc1C(N)=O [Example 262, 4-[(aminocarbonyl)amino]-1-(2,4′-difluoro-2′-hydroxy-1,1′-biphenyl-4-yl)-1H-pyrazole-3-carboxamide]

IC50 [µM] | SMILES
0.7 | Cc1cc(O)ccc1-c1cccc(-n2cc(NC(N)=O)c(C(N)=O)n2)c1 [Example 89, 4-[(aminocarbonyl)amino]-1-(4′-hydroxy-2′-methyl-1,1′-biphenyl-3-yl)-1H-pyrazole-3-carboxamide]
0.375 | NC(=O)Nc1cn(-c2ccc(-c3cccc(O)c3)c(C(F)(F)F)c2)nc1C(N)=O [Example 233, 4-[(aminocarbonyl)amino]-1-[3′-hydroxy-2-(trifluoromethyl)-1,1′-biphenyl-4-yl]-1H-pyrazole-3-carboxamide]
0.63 | COc1ccc(CNC(=O)c2ccc(-c3ccc(-n4cc(NC(N)=O)c(C(N)=O)n4)cc3)cc2F)cc1 [Example 150, 4-[(aminocarbonyl)amino]-1-(3′-fluoro-4′-{[(4-methoxybenzyl)amino]carbonyl}-1,1′-biphenyl-4-yl)-1H-pyrazole-3-carboxamide]
0.866 | Cc1cc(-n2cc(NC(N)=O)c(C(N)=O)n2)ccc1-c1ccc(F)cc1OCC#N [Example 244, 1-(2′-Cyanomethoxy-4′-fluoro-2-methyl-biphenyl-4-yl)-4-ureido-1H-pyrazole-3-carboxylic acid amide]
0.228 | CC(C#N)Oc1ccc(F)cc1-c1ccc(-n2cc(NC(N)=O)c(C(N)=O)n2)cc1 (stereo not drawn) [Example 180, 4-[(aminocarbonyl)amino]-1-[2′-(1-cyanoethoxy)-5′-fluoro-1,1′-biphenyl-4-yl]-1H-pyrazole-3-carboxamide]
1.79 | NC(=O)Nc1cn(-c2ccc(-c3cccc(-n4cccn4)c3)cc2)nc1C(N)=O [Example 130, 4-[(aminocarbonyl)amino]-1-[3′-(1H-pyrazol-1-yl)-1,1′-biphenyl-4-yl]-1H-pyrazole-3-carboxamide]
0.88 | Cc1noc(C)c1-c1cccc(-n2cc(NC(N)=O)c(C(N)=O)n2)c1 [Example 70, 4-[(aminocarbonyl)amino]-1-[3-(3,5-dimethylisoxazol-4-yl)phenyl]-1H-pyrazole-3-carboxamide]
0.6 | NC(=O)Nc1cn(-c2cccc(-c3ccc(C(=O)NC4CC4)cc3)c2)nc1C(N)=O [Example 80, 4-[(aminocarbonyl)amino]-1-{4′-[(cyclopropylamino)carbonyl]-1,1′-biphenyl-3-yl}-1H-pyrazole-3-carboxamide]
5.2 | NC(=O)Nc1cn(-c2cccc(-c3cncnc3)c2)nc1C(N)=O [Example 66, 4-[(aminocarbonyl)amino]-1-(3-pyrimidin-5-ylphenyl)-1H-pyrazole-3-carboxamide]
0.328 | NC(=O)Nc1cn(-c2ccc(Sc3ccccc3O)cc2)nc1C(N)=O [Example 208, 1-(1-(4-(2-hydroxyphenylthio)phenyl)-3-carbamoyl-1H-pyrazol-4-yl)urea]
0.31 | NC(=O)Nc1cn(-c2cccc(-c3ccncc3)c2)nc1C(N)=O [Example 45, 4-[(aminocarbonyl)amino]-1-(3-pyridin-4-ylphenyl)-1H-pyrazole-3-carboxamide]
4.86 | NCc1ccc(-c2cccc(-n3cc(NC(N)=O)c(C(N)=O)n3)c2)cc1 [Example 52, 4-[(aminocarbonyl)amino]-1-[4′-(aminomethyl)-1,1′-biphenyl-3-yl]-1H-pyrazole-3-carboxamide]
1.31 | NC(=O)Nc1cn(-c2ccc(F)c(F)c2)nc1C(N)=O [Example 218, 4-[(aminocarbonyl)amino]-1-(3,4-difluorophenyl)-1H-pyrazole-3-carboxamide]
0.07 | CNC(=O)COc1cccc(-c2ccc(-n3cc(NC(N)=O)c(C(N)=O)n3)cc2)c1 [Example 383, 4-[(aminocarbonyl)amino]-1-{3′-[2-(methylamino)-2-oxoethoxy]-1,1′-biphenyl-4-yl}-1H-pyrazole-3-carboxamide]
0.718 | NC(=O)Nc1cn(-c2ccc(Sc3ccc(F)cc3)cc2)nc1C(N)=O [Example 196, 1-(1-(4-(4-fluorophenylthio)phenyl)-3-carbamoyl-1H-pyrazol-4-yl)urea]
1.07 | CNC(=O)COc1ccc(F)cc1-c1ccc(-n2cc(NC(N)=O)c(C(N)=O)n2)cc1 [Example 256, 4-[(aminocarbonyl)amino]-1-{5′-fluoro-2′-[2-(methylamino)-2-oxoethoxy]-1,1′-biphenyl-4-yl}-1H-pyrazole-3-carboxamide]

Source: patent US20050197338A1, “Substituted pyrazole urea compounds for the treatment of inflammation” (priority 2003, published 2005)
